Assay results taken from the supplement of paper PMC11208160.

Experiment: recombinant UMI read abundance after kanamycin selection (control-corrected) (log10(CPM+1)); higher = more efficient recombination; extreme values may be limits of the assay; sequences stand for … in AGTGCAGAGAAAATCGGCCAGTTTTCTCTGCCTGCAGTCCGCATGCCGTGGGACCCCTTGGGTTCTAACCTGTTGCCTAGATTTATGCAGCGGACTGCCTTTCTCCCAAAGTGATAAACCGG…AGGTTGGTTTCACT; site = the 11-nt donor
In short: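 Values are reported as log10(CPM+1), obtained by converting sequencing counts to CPM, averaging replicates and scaling by control-derived factors. The counts came from recombinant UMIs amplified by PCR across the donor–target junction. These UMIs came from a pooled Escherichia coli screen of donor and donor-binding-loop pairs for the IS621 bridge recombinase, plated with IPTG (0.07 mM) plus kanamycin or left unselected, in two replicates each.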
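Further: IS621 bridge recombinase in Escherichia coli cells against a fixed T5 target plasmid.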

Sequence: CGGAATCCATGGACCGGTTTTCCCGGTAATCCGTATTTGTT (site CAGAATACTAA)
- recombinant UMI read abundance (log10): 0

Sequence: CGGAATCCATGGACCGGTTTTCCCGGTAATCCGTATTTGTT (site CAGAATCCTAA)
- recombinant UMI read abundance (log10): 0

Sequence: CGGAATCCATGGACCGGTTTTCCCGGTAATCCGTATTTGTT (site CAGAATCCTAT)
- recombinant UMI read abundance (log10): 0

Sequence: CGGAATCCATGGACCGGTTTTCCCGGTAATCCGTATTTGTT (site CAGAATCCTGA)
- recombinant UMI read abundance (log10): 0

Sequence: CGGAATCCATGGACCGGTTTTCCCGGTAATCCGTATTTGTT (site CAGAGTCCTAA)
- recombinant UMI read abundance (log10): 0.0165

Sequence: CGGAATCCATGGACCGGTTTTCCCGGTAATCCGTATTTGTT (site CAGTATCCTAA)
- recombinant UMI read abundance (log10): 0.0125

Sequence: CGGAATCCATGGACCGGTTTTCCCGGTAATCCGTATTTGTT (site CATAATCCTAA)
- recombinant UMI read abundance (log10): 0

Sequence: CGGAATCCATGGACCGGTTTTCCCGGTAATCCGTATTTGTT (site CCAAATCCTAA)
- recombinant UMI read abundance (log10): 0

Sequence: CGGAATCCATGGACCGGTTTTCCCGGTAATCCGTATTTGTT (site CCGAAACCTAA)
- recombinant UMI read abundance (log10): 0.0076

Sequence: CGGAATCCATGGACCGGTTTTCCCGGTAATCCGTATTTGTT (site CCGAATCCTAA)
- recombinant UMI read abundance (log10): 0.00308

Sequence: CGGAATCCATGGACCGGTTTTCCCGGTAATCCGTATTTGTT (site CCGAATCCTAG)
- recombinant UMI read abundance (log10): 0

Sequence: CGGAATCCATGGACCGGTTTTCCCGGTAATCCGTATTTGTT (site CCGAATCCTTA)
- recombinant UMI read abundance (log10): 0

Sequence: CGGAATCCATGGACCGGTTTTCCCGGTAATCCGTATTTGTT (site CCGAATTCTAA)
- recombinant UMI read abundance (log10): 0

Sequence: CGGAATCCATGGACCGGTTTTCCCGGTAATCCGTATTTGTT (site CCGATTCCTAA)
- recombinant UMI read abundance (log10): 0.00402

Sequence: CGGAATCCATGGACCGGTTTTCCCGGTAATCCGTATTTGTT (site CCGGATCCTAA)
- recombinant UMI read abundance (log10): 0

Sequence: CGGAATCCATGGACCGGTTTTCCCGGTAATCCGTATTTGTT (site CGAAAACCTAA)
- recombinant UMI read abundance (log10): 0

Sequence: CGGAATCCATGGACCGGTTTTCCCGGTAATCCGTATTTGTT (site CGAAATCCTAA)
- recombinant UMI read abundance (log10): 0

Sequence: CGGAATCCATGGACCGGTTTTCCCGGTAATCCGTATTTGTT (site CGAAATCCTAG)
- recombinant UMI read abundance (log10): 0

Sequence: CGGAATCCATGGACCGGTTTTCCCGGTAATCCGTATTTGTT (site CGAAATCCTTA)
- recombinant UMI read abundance (log10): 0.014

Sequence: CGGAATCCATGGACCGGTTTTCCCGGTAATCCGTATTTGTT (site CGAAATTCTAA)
- recombinant UMI read abundance (log10): 0

Sequence: CGGAATCCATGGACCGGTTTTCCCGGTAATCCGTATTTGTT (site CGAATTCCTAA)
- recombinant UMI read abundance (log10): 0

Sequence: CGGAATCCATGGACCGGTTTTCCCGGTAATCCGTATTTGTT (site CGAGATCCTAA)
- recombinant UMI read abundance (log10): 0

Sequence: CGGAATCCATGGACCGGTTTTCCCGGTAATCCGTATTTGTT (site CGCAACCCTAA)
- recombinant UMI read abundance (log10): 0.00816

Sequence: CGGAATCCATGGACCGGTTTTCCCGGTAATCCGTATTTGTT (site CGCAATCCTAA)
- recombinant UMI read abundance (log10): 0.00384

Sequence: CGGAATCCATGGACCGGTTTTCCCGGTAATCCGTATTTGTT (site CGCAATCCTAC)
- recombinant UMI read abundance (log10): 0

Sequence: CGGAATCCATGGACCGGTTTTCCCGGTAATCCGTATTTGTT (site CGCAATCCTCA)
- recombinant UMI read abundance (log10): 0.00634

Sequence: CGGAATCCATGGACCGGTTTTCCCGGTAATCCGTATTTGTT (site CGCAATGCTAA)
- recombinant UMI read abundance (log10): 0.00802

Sequence: CGGAATCCATGGACCGGTTTTCCCGGTAATCCGTATTTGTT (site CGCACTCCTAA)
- recombinant UMI read abundance (log10): 0.0157

Sequence: CGGAATCCATGGACCGGTTTTCCCGGTAATCCGTATTTGTT (site CGCCATCCTAA)
- recombinant UMI read abundance (log10): 0

Sequence: CGGAATCCATGGACCGGTTTTCCCGGTAATCCGTATTTGTT (site CGGAAACCTAA)
- recombinant UMI read abundance (log10): 1.09

Sequence: CGGAATCCATGGACCGGTTTTCCCGGTAATCCGTATTTGTT (site CGGAAACCTAG)
- recombinant UMI read abundance (log10): 0.112

Sequence: CGGAATCCATGGACCGGTTTTCCCGGTAATCCGTATTTGTT (site CGGAAACCTTA)
- recombinant UMI read abundance (log10): 0

Sequence: CGGAATCCATGGACCGGTTTTCCCGGTAATCCGTATTTGTT (site CGGAAATCTAA)
- recombinant UMI read abundance (log10): 0

Sequence: CGGAATCCATGGACCGGTTTTCCCGGTAATCCGTATTTGTT (site CGGAACCCTAA)
- recombinant UMI read abundance (log10): 0.157

Sequence: CGGAATCCATGGACCGGTTTTCCCGGTAATCCGTATTTGTT (site CGGAACCCTAC)
- recombinant UMI read abundance (log10): 0.00563

Sequence: CGGAATCCATGGACCGGTTTTCCCGGTAATCCGTATTTGTT (site CGGAACCCTCA)
- recombinant UMI read abundance (log10): 0.0146

Sequence: CGGAATCCATGGACCGGTTTTCCCGGTAATCCGTATTTGTT (site CGGAACGCTAA)
- recombinant UMI read abundance (log10): 0.00389

Sequence: CGGAATCCATGGACCGGTTTTCCCGGTAATCCGTATTTGTT (site CGGAAGACTAA)
- recombinant UMI read abundance (log10): 0

Sequence: CGGAATCCATGGACCGGTTTTCCCGGTAATCCGTATTTGTT (site CGGAAGCCTAA)
- recombinant UMI read abundance (log10): 0.0104

Sequence: CGGAATCCATGGACCGGTTTTCCCGGTAATCCGTATTTGTT (site CGGAAGCCTAT)
- recombinant UMI read abundance (log10): 0.00319

Sequence: CGGAATCCATGGACCGGTTTTCCCGGTAATCCGTATTTGTT (site CGGAAGCCTGA)
- recombinant UMI read abundance (log10): 0

Sequence: CGGAATCCATGGACCGGTTTTCCCGGTAATCCGTATTTGTT (site CGGAATACTAA)
- recombinant UMI read abundance (log10): 0

Sequence: CGGAATCCATGGACCGGTTTTCCCGGTAATCCGTATTTGTT (site CGGAATACTAT)
- recombinant UMI read abundance (log10): 0

Sequence: CGGAATCCATGGACCGGTTTTCCCGGTAATCCGTATTTGTT (site CGGAATACTGA)
- recombinant UMI read abundance (log10): 0

Sequence: CGGAATCCATGGACCGGTTTTCCCGGTAATCCGTATTTGTT (site CGGAATCCTAA)
- recombinant UMI read abundance (log10): 1.19

Sequence: CGGAATCCATGGACCGGTTTTCCCGGTAATCCGTATTTGTT (site CGGAATCCTAC)
- recombinant UMI read abundance (log10): 0

Sequence: CGGAATCCATGGACCGGTTTTCCCGGTAATCCGTATTTGTT (site CGGAATCCTAG)
- recombinant UMI read abundance (log10): 0

Sequence: CGGAATCCATGGACCGGTTTTCCCGGTAATCCGTATTTGTT (site CGGAATCCTAT)
- recombinant UMI read abundance (log10): 0

Sequence: CGGAATCCATGGACCGGTTTTCCCGGTAATCCGTATTTGTT (site CGGAATCCTCA)
- recombinant UMI read abundance (log10): 0.00562

Sequence: CGGAATCCATGGACCGGTTTTCCCGGTAATCCGTATTTGTT (site CGGAATCCTCC)
- recombinant UMI read abundance (log10): 0.00652

Sequence: CGGAATCCATGGACCGGTTTTCCCGGTAATCCGTATTTGTT (site CGGAATCCTGA)
- recombinant UMI read abundance (log10): 1.65

Sequence: CGGAATCCATGGACCGGTTTTCCCGGTAATCCGTATTTGTT (site CGGAATCCTGT)
- recombinant UMI read abundance (log10): 0

Sequence: CGGAATCCATGGACCGGTTTTCCCGGTAATCCGTATTTGTT (site CGGAATCCTTA)
- recombinant UMI read abundance (log10): 1.56

Sequence: CGGAATCCATGGACCGGTTTTCCCGGTAATCCGTATTTGTT (site CGGAATCCTTG)
- recombinant UMI read abundance (log10): 0

Sequence: CGGAATCCATGGACCGGTTTTCCCGGTAATCCGTATTTGTT (site CGGAATGCTAA)
- recombinant UMI read abundance (log10): 0.0054

Sequence: CGGAATCCATGGACCGGTTTTCCCGGTAATCCGTATTTGTT (site CGGAATGCTAC)
- recombinant UMI read abundance (log10): 0

Sequence: CGGAATCCATGGACCGGTTTTCCCGGTAATCCGTATTTGTT (site CGGAATGCTCA)
- recombinant UMI read abundance (log10): 0

Sequence: CGGAATCCATGGACCGGTTTTCCCGGTAATCCGTATTTGTT (site CGGAATTCTAA)
- recombinant UMI read abundance (log10): 0

Sequence: CGGAATCCATGGACCGGTTTTCCCGGTAATCCGTATTTGTT (site CGGAATTCTAG)
- recombinant UMI read abundance (log10): 0

Sequence: CGGAATCCATGGACCGGTTTTCCCGGTAATCCGTATTTGTT (site CGGAATTCTTA)
- recombinant UMI read abundance (log10): 0

Sequence: CGGAATCCATGGACCGGTTTTCCCGGTAATCCGTATTTGTT (site CGGACCCCTAA)
- recombinant UMI read abundance (log10): 0.00922

Sequence: CGGAATCCATGGACCGGTTTTCCCGGTAATCCGTATTTGTT (site CGGACTCCTAA)
- recombinant UMI read abundance (log10): 0.00741

Sequence: CGGAATCCATGGACCGGTTTTCCCGGTAATCCGTATTTGTT (site CGGACTCCTAC)
- recombinant UMI read abundance (log10): 0.00516

Sequence: CGGAATCCATGGACCGGTTTTCCCGGTAATCCGTATTTGTT (site CGGACTCCTCA)
- recombinant UMI read abundance (log10): 0.00467

Sequence: CGGAATCCATGGACCGGTTTTCCCGGTAATCCGTATTTGTT (site CGGACTGCTAA)
- recombinant UMI read abundance (log10): 0.0124

Sequence: CGGAATCCATGGACCGGTTTTCCCGGTAATCCGTATTTGTT (site CGGAGGCCTAA)
- recombinant UMI read abundance (log10): 0.012

Sequence: CGGAATCCATGGACCGGTTTTCCCGGTAATCCGTATTTGTT (site CGGAGTACTAA)
- recombinant UMI read abundance (log10): 0.00934

Sequence: CGGAATCCATGGACCGGTTTTCCCGGTAATCCGTATTTGTT (site CGGAGTCCTAA)
- recombinant UMI read abundance (log10): 0.00217
